The text below walks through data of publication PMC11434613, “The Remarkable and Selective In Vitro Cytotoxicity of Synthesized Bola-Amphiphilic Nanovesicles on Etoposide-Sensitive and -Resistant Neuroblastoma Cells” (Nanomaterials, 2024).

Read-outs that look alike come from different tables or passages of the source.

Format in all cases: cell-based, human
Series [1] relates to HTLA-ER cells. Put plainly: Cell viability assay (CellTiter 96 AQueous One Solution) on etoposide-resistant HTLA-ER NB cells. The source says:
HTLA-230 human stage-IV NB cells were kindly provided by Dr. L. Raffaghello (G. Gaslini Institute, Genoa, Italy). The HTLA-ER cells were selected by treating HTLA-230 parental cells for six months with increasing concentrations of etoposide, as previously reported. Both cell populations were maintained in RPMI 1640 medium (Euroclone Spa, Pavia, Italy) supplemented with 10% fetal bovine serum (FBS, Euroclone Spa, Pavia, Italy), 1% L-glutamine (Euroclone Spa, Pavia, Italy), and 1% Penicillin/Streptomicin (Euroclone Spa, Pavia, Italy) and grown in standard conditions (37 °C humidified incubator with 5% CO2).
To determine the cytotoxic effects of BPPB, in vitro time- and dose-dependent experiments were carried out. Cells were first treated for 24, 48, and 72 h, with increasing concentrations (0.5–50 µM) of the compound. In a subsequent series of the experiments, cells were treated for 24, 48, and 72 h with increasing concentration of BPPB in the range of 0.1–2 µM. […] Cell cultures were carefully monitored before and during the experiments to ensure optimal cell density.
Cell viability was determined by using the CellTiter 96® AQueous One Solution Cell Proliferation Assay (Promega, Madison, WI, USA), as previously described. Briefly, cells (10,000 cells/well) were seeded into 96-well plates (Corning Incorporated, Corning, NY, USA) and then treated. Next, cells were incubated with 20 µL of CellTiter, and the absorbance at 490 nm was recorded using a microplate reader (EL-808, BIO-TEK Instruments Inc., Winooski, VT, USA). IC50 was evaluated by GraphPad Prism 5.4.2 Software (GraphPad Software, Boston, MA, USA).
Results are expressed as the means ± S.D. of at least four independent experiments in which six different wells were analyzed every time for each experimental condition. The statistical significance of differences was determined by two-way analysis of variances (ANOVA) followed by Tukey’s multicomparison test using GraphPad Prism 8.0 (GraphPad Software v8.0, San Diego, CA, USA); p < 0.05 was considered statistically significant. Asterisks or other indicators (see Figures captions) indicate the following p-value ranges: p > 0.05 no symbols, * = p < 0.05, ** = p < 0.01, *** = p < 0.001, **** = p < 0.0001.

The nature of series [2]: In vitro hemolytic toxicity on red blood cells. The following applies: human. How it is done:
(§1) The hemolytic ratio was evaluated, as recently reported with slight changes, in EDTA-blood samples from four healthy donors from the San Martino Hospital Transfusion Centre. Specifically, red blood cells (RBCs) were isolated by diluting 0.2 mL of blood with 0.4 mL of phosphate-buffered saline (PBS) and centrifuging it for 5 min at 10,000× g. The pellet, consisting of RBCs, was washed 5 times with 1.0 mL PBS and finally resuspended with 2.0 mL PBS. The assay was carried out on 0.1 mL of resuspended RBCs added to 0.1 mL of H2O (positive control), 0.1 mL of PBS (negative control), or 0.1 mL of the different concentrations (0.1–50 µM) of the compound to be tested (BPPB). The samples were incubated for 60 min at 37 °C, and at the end, they were centrifuged for 5 min at 10,000× g. Finally, 0.1 mL of supernatant was transferred to a transparent 96-well plate and measured by a spectrophotometer (Dynex Technologies; Chantilly, VA, U.S.A.) at 595 nm. The hemolytic ratio was calculated using the following formula:Hemolytic ratio (%) = (OD TEST − OD NEGATIVE CONTROL)/(OD POSITIVE CONTROL − OD NEGATIVE CONTROL) × 100
(§2) The hemolytic ratio percentage (%) caused by BPPB was assessed as recently reported with slight changes. In particular, EDTA-blood samples from four healthy donors were exposed to increasing concentrations of BPPB (0.1–50 µM).

Series [3] concerns red blood cells (RBCs). Put plainly: In vitro hemolytic toxicity on red blood cells. The following applies: for Hemolysis (hemolytic ratio): 60 min; for IC50: 60 min at 37 °C, 0.1–50 µM, blood of four healthy donors, read-out: IC50 RBCs (concentration needed to cause 50% hemolysis). As for the experimental part: as §1, §2

In the case of `c1ccc([P+](CCCCCCCCCCCC[P+](c2ccccc2)(c2ccccc2)c2ccccc2)(c2ccccc2)c2ccccc2)cc1` [BPPB, 1,1-(1,12-dodecanediyl)bis [1,1, 1]-triphenylphosphonium di-bromide], the “Cell viability HTLA-ER” value in series [1] (0.5 µM, 24 h, series 0.5–50 µM) is on record as “not significantly different from that of controls”; in series [1] (24 h, concentration at which hemolysis was inexistent (concentration not stated)), 14.3%. Moreover, the “Fold lower IC50 on HTLA-ER than that of ETO” value in series [1] (24 h, ETO IC50 592 µM from ref 58) amounted to 538 fold. In addition, the IC50 in series [1] (24 h exposure, refined concentration range 0.1–2 µM) stood at 1110 nM; in series [1] (48 h exposure, refined concentration range 0.1–2 µM), 930 ± 95.6 nM; in series [1] (72 h exposure, refined concentration range 0.1–2 µM), 833 ± 68.5 nM; in series [1] (Homo sapiens, 24 h, 24 h exposure, concentration range 0.5–50 µM) it was 1850 ± 392 nM; in series [1] (Homo sapiens, 24 h, 24 h exposure, refined concentration range 0.1–2 µM) it was 1100 nM; in series [1] (Homo sapiens, 48 h, 48 h exposure, concentration range 0.5–50 µM) it was 732 ± 159 nM. The IC50 was 900 nM in series [1] (Homo sapiens, 48 h, 48 h exposure, refined concentration range 0.1–2 µM); 892 ± 167 nM in series [1] (Homo sapiens, 72 h, 72 h exposure, concentration range 0.5–50 µM); 800 nM in series [1] (Homo sapiens, 72 h, 72 h exposure, refined concentration range 0.1–2 µM); 800 to 1100 nM in series [1] (Homo sapiens, 72 h, over 24, 48, 72 h, range 0.1–2 µM); 14900 nM in series [3]; 14900 nM in series [3] (Homo sapiens, Erythrocyte, 1 h). The viability (commonly the share of living cells, or the viability signal relative to a control) at 0.5 µM in series [1] (Homo sapiens, 0.5 µM, 48 h, series 0.5–50 µM) stood at 54.1%; in series [1] (Homo sapiens, 0.5 µM, 72 h, series 0.5–50 µM) it was 62%. Further, in series [1] (concentrations above 5–10 µM up to 50 µM, all exposure times), the “Cell viability HTLA-ER (plateau)” value is 7–8%. Further, the selectivity ratio at 60 min in series [2] (NB cells 24 h exposure, read-out: Selectivity index (SI) = IC50 RBCs / IC50 HTLA-ER) is above 10. In addition, the viability at 60 min in series [2] (isolated red blood cells, concentration at which both NB cell populations were fully exterminated, read-out: RBC viability) amounted to 98.4%. The “Hemolysis (hemolytic ratio)” value in series [3] (10 µM) is 25.1%; in series [3] (20 µM), 50.8%. For the same compound, the “Selectivity index (SI) = IC50 RBCs / IC50 HTLA-230” value in series [3] (NB cells 24 h exposure) was above 74. In series [3] (NB cells 24 h exposure), the “Selectivity index (SI) = IC50 RBCs / IC50 HTLA-ER” value is listed as 13.56.
